According to patent US20080221021A1, “Novel Corticotropin-Releasing Factor Receptor 1 (Crfr1) Agonist” (Max-Planck-Gesellschaft Zur Forderung Der, priority 2004, published 2008):
Entries after “also recorded” stand apart in the source; their conditions may differ. Where no end group is shown, it is not given here.

Legend:
CRFR1 = conditions: cited from earlier work
rCRFR1 [1] = target: T1, rCRFR1 (Rattus norvegicus, UniProt P35353); test: Competition binding scintillation proximity assay, rCRFR1 membranes; conditions: for selectivity for CRFR1: CRFR1 vs CRFR2, in words
T1 construct: expressed in transfected cells
T1 sequence (P35353 24-415): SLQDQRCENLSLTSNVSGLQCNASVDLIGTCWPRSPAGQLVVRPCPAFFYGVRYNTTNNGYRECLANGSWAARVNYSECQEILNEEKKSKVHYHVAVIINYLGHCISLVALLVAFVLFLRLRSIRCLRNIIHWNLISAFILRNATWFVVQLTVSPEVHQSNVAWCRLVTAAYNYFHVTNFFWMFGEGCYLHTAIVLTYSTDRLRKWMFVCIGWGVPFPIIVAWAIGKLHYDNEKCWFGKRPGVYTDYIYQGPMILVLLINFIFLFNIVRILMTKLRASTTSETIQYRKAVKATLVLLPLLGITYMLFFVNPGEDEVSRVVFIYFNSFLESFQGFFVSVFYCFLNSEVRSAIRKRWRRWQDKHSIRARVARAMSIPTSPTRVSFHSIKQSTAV
Experimental: (§1) Crude membrane fractions were prepared from human embryonic kidney (HEK) 293 cells stably expressing either cloned rat CRFR1α(rCRFR1) or mouse CRFR2β (mCRFR2β) as described (20). Rat CRFBP (rCRFBP) was produced in HEK 293 cells stably transfected with cDNA coding for rCRFBP C-terminally fused with a His6 sequence as described (36). The scintillation proximity assays (SPA) for binding analysis of CRFR and CRFBP have been already described in detail (21, 22). For competition binding assays of rCRFR1 and rCRFBP, [^125I-Tyr^0]h/rCRF was used as radiolabeled peptide, whereas [^125I-Tyr^0]Svg was employed for mCRFR2β.

[2] = format: physicochemical
Experimental: A high solubility under physiological conditions is a crucial prerequisite especially for compounds to be injected into the rodent brain. […] Both peptides were soluble in a concentration range of up to 1000 μM (FIG. 6), so that there was no limitation in view of the agonist doses typically used in behavioral experiments. […] Consequently, solutions of cortagine to be used in the pharmacological assays were prepared in phosphate buffered saline (PBS; pH=7.4).

rCRFR1 [3] = target: T1, rCRFR1; test: Agonist-induced intracellular cAMP accumulation in HEK 293 cells producing rCRFR1; format: cell-based; conditions: ratio of biological potencies (cAMP)
Experimental: The biological potency of cortagine and OCRF was evaluated by the determination of the EC50 values for agonist-induced intracellular accumulation of cAMP in HEK 293 cells producing either rCRFR1 or mCRFR2β.
The HEK 293 cells were plated into 24 well cell culture plates and stimulated as described (21) using increasing concentrations of the agonists under investigation. Intracellular cAMP was measured with the Biotrak™ cAMP [^125I] SPA system (Amersham Pharmacia Biotech) according to the manufacturer's product manual.

[4] = Maximum solubility in aCSF by amino acid analysis; format: physicochemical; conditions: aCSF, pH 7.4; read-out: maximal solubility cmax
Experimental: After dissolving the peptides in artificial cerebrospinal fluid (aCSF; 124 mM NaCl, 26.4 mM NaHCO3, 10 mM glucose, 3.3 mM KCl, 2.5 mM CaCl2 , 2.4 mM MgSO4 , 1.2 mM KH2PO4) at pH=7.4, the maximum solubility cmax was determined by amino acid analysis as described (21). The isoelectric point of the peptides was determined by isoelectric focusing (IEF) as described (21) with a Bio-Rad IEF cell system using Bio-Rad IEF strips in the pH range 3-10.

mCRFR2β = target: T2, mCRFR2β (Mus musculus, UniProt Q60748); test: Competition binding scintillation proximity assay, mCRFR2β membranes; conditions: for affinity for CRFR2: binding analysis, in words
T2 construct: expressed in transfected cells
Experimental: as §1

rCRFBP = target: T3, rCRFBP (Rattus norvegicus, UniProt P24388); test: Competition binding scintillation proximity assay, rCRFBP; conditions: binding analysis, in words
T3 construct: His6 (C); made in house; host or cells: HEK 293 cells, stably transfected
T3 sequence (P24388 25-322): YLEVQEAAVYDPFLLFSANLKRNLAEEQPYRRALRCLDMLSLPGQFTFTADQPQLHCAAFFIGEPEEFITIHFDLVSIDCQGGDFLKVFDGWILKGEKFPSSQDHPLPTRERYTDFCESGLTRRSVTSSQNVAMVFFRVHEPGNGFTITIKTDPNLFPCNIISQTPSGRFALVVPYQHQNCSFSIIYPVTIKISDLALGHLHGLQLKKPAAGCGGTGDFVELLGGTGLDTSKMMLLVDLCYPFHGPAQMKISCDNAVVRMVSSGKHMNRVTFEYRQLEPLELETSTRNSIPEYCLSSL
Experimental: as §1

C57BL/6J mice = test: Elevated plus-maze test, intraseptal (i.s.) injection; format: in vivo, mouse; conditions: 400 ng aSvg-30 i.s. 15 min before oCRF
Experimental: Nine-week old male C57BL/6J (Centre D'Elevage Janvier, Sultzfeld, France) were individually housed in macrolon cages according to the recommendations of the Society for Laboratory Animal Science (Germany). All experiments were carried out in accordance with the European Council Directive (86/609/EEC) with the permission of the Animal Protection Law enforced by the District Government of Braunschweig, State of Lower Saxony, Germany, which is in full agreement with the APA ethical guidelines. All efforts were made to minimize animal suffering. The number of mice per group was 9-11.
All peptides were dissolved in aCSF except for the CRFR2-selective antagonist antisauvagine-30 (aSvg-30) (20) that was initially dissolved in 10 mM aqueous acetic acid and diluted with the same volume of two-fold concentrated aCSF. The final pH of the peptide solutions was 7.4. The exact peptide concentration of the injection solutions was determined by amino acid analysis with a Beckman HPLC analyzer system 6300. […]
The elevated plus-maze (EPM) behavior of C57BL/6J mice cannulated in the lateral ventricles or lateral intermediate septal area (23) was investigated 30 min after injection of the CRFR1 agonist under investigation for 5 min in the EPM test (24). […] The behavior of the mice was recorded by a video camera connected to a PC and analyzed by the Technical & Scientific Equipment software VIDEOMOT 2. […]

T2 sequence (Q60748 1-431 isoform Q60748-2): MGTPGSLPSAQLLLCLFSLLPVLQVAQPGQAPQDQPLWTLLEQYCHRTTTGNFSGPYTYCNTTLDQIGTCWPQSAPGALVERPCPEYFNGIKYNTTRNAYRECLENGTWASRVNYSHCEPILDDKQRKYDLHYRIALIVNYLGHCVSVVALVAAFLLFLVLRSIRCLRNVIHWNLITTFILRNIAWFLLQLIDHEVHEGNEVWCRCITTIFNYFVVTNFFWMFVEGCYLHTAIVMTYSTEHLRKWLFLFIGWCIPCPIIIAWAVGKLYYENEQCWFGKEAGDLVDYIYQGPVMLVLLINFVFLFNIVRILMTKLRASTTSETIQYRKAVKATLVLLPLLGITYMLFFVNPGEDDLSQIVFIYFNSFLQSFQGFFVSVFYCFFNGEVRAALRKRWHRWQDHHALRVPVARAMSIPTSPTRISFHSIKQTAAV

Compound: CCCCN(CC)c1nc(C)nc2c1c(C)cn2-c1c(C)cc(C)cc1C [CP-154,526]
- locomotion in the EPM test (CRFR1): nonspecific increase in locomotion

Compound: CC[C@H](C)[C@H](NC(=O)[C@@H](NC(=O)[C@H](CC(=O)O)NC(=O)[C@H](CC(C)C)NC(=O)[C@H](CC(C)C)NC(=O)[C@H](CC(C)C)NC(=O)[C@H](CCCNC(=N)N)NC(=O)[C@H](CC(N)=O)NC(=O)[C@H](CC(N)=O)NC(=O)[C@H](C)NC(=O)[C@H](C)NC(=O)[C@H](CCC(N)=O)NC(=O)[C@H](CCC(N)=O)NC(=O)[C@H](CCCCN)NC(=O)[C@H](CCC(=O)O)NC(=O)[C@H](CCCCN)NC(=O)[C@H](CCC(=O)O)NC(=O)[C@H](CCC(N)=O)NC(=O)[C@H](CCCCN)NC(=O)[C@H](CCC(=O)O)NC(=O)[C@@H](NC(=O)[C@H](CCC(=O)O)NC(=O)[C@@H](NC(=O)[C@H](CCSC)NC(=O)[C@H](CCCCN)NC(=O)[C@H](CCCNC(=N)N)NC(=O)[C@H](CC(C)C)NC(=O)[C@H](CC(C)C)NC(=O)[C@H](CCC(=O)O)NC(=O)[C@H](CC(C)C)NC(=O)[C@H](CO)NC(=O)[C@H](CC(C)C)NC(=O)[C@H](CC(=O)O)NC(=O)[C@@H](NC(=O)[C@H](CO)NC(=O)[C@@H](NC(=O)[C@@H]1CCCN1C(=O)[C@@H]1CCCN1C(=O)CNC(=O)[C@@H]1CCC(=O)N1)[C@@H](C)CC)[C@@H](C)CC)[C@@H](C)CC)[C@@H](C)CC)[C@@H](C)O)C(N)=O [Svg, sauvagine, reference compound]
- selectivity for CRFR1 (rCRFR1 [1]; binding analysis): non-selective

Compound: CC[C@H](C)[C@H](NC(=O)[C@H](CC(=O)O)NC(=O)[C@H](CC(C)C)NC(=O)[C@H](CC(C)C)NC(=O)[C@H](CCCCN)NC(=O)[C@H](CCCNC(=N)N)NC(=O)[C@H](CC(N)=O)NC(=O)[C@H](CO)NC(=O)[C@H](Cc1c[nH]cn1)NC(=O)[C@H](C)NC(=O)[C@H](CCC(N)=O)NC(=O)[C@H](CCC(N)=O)NC(=O)[C@H](C)NC(=O)[C@H](CC(C)C)NC(=O)[C@H](CCC(N)=O)NC(=O)[C@H](CC(=O)O)NC(=O)[C@H](C)NC(=O)[C@H](CCCCN)NC(=O)[C@@H](NC(=O)[C@H](CCSC)NC(=O)[C@H](CCC(=O)O)NC(=O)[C@H](CC(C)C)NC(=O)[C@@H](NC(=O)[C@H](CCC(=O)O)NC(=O)[C@H](CCCNC(=N)N)NC(=O)[C@H](CC(C)C)NC(=O)[C@H](CC(C)C)NC(=O)[C@H](Cc1c[nH]cn1)NC(=O)[C@H](Cc1ccccc1)NC(=O)[C@@H](NC(=O)[C@H](CC(C)C)NC(=O)[C@H](CC(=O)O)NC(=O)[C@H](CC(C)C)NC(=O)[C@H](CO)NC(=O)[C@@H](NC(=O)[C@@H]1CCCN1C(=O)[C@@H]1CCCN1C(=O)[C@H](CCC(=O)O)NC(=O)[C@H](CCC(N)=O)NC(=O)[C@@H](N)CO)[C@@H](C)CC)[C@@H](C)O)C(C)C)[C@@H](C)O)C(=O)N[C@@H](C)C(N)=O [oCRF, ovine CRF, reference compound]
- solubility in 10 mM aqueous acetic acid [2]: soluble in 10 mM aqueous acetic acid
- CRFR1-selectivity over CRFR2β, IC50(mCRFR2)/IC50(rCRFR1) (rCRFR1 [1]; ratio of binding affinities): 89
- CRFR1-selectivity over CRFR2β, EC50(mCRFR2)/EC50(rCRFR1) (rCRFR1 [3]): 19
- solubility [4]: ≤ 1000 µM

Compound: [Ala^40] [Svg^1-12]x[h/rCRF^14-30]x[Svg^30-40] [compound 8]
- change in affinity for CRFR2 in comparison to parent peptide (mCRFR2β; compound 8 vs compound 6, compound 9 vs compound 8): only a slight increase
- affinity to CRFBP (rCRFBP): high affinity
- selectivity for CRFR1 (rCRFR1 [1]; binding analysis): highly selective for CRFR1
- change in affinity to CRFR1 in comparison to parent peptide (rCRFR1 [1]; compound 8 vs compound 6, compound 9 vs compound 8, Nle20 analog vs compound 9): more than five-fold increase

Compound: [Ala^41]h/rCRF (SEEPPISLDLTFHLLREVLEMARAEQLAQQAHSNRKLMEIA; ends and bridges not checked; UniProt P06850 154-194, looked up, variant I41A) [h/rCRF analog with Ala in position 41]
- selectivity for CRFR1 in comparison to h/rCRF (rCRFR1 [1]; binding analysis): increase in CRFR1 selectivity by a factor of three

Compound: [Svg^1-12 ]x[h/rCRF^14-30]x[Svg^30-40] (QGPPISIDLSLELLREVLEMARAEQLAQQAANNRLLLDTI; not fully specified (residue 1); ends and bridges not checked) [compound 6]
- affinity for CRFR2 (mCRFR2β): low affinity to CRFR2
- selectivity for CRFR1 (rCRFR1 [1]; binding analysis): selective for CRFR1

Compound: [Svg^1-29]x[h/rCRF^31-41] (QGPPISIDLSLELLRKMIEIEKQEKEKQQAHSNRKLMEII; ends and bridges not checked) [compound 7, chimeric peptide of h/rCRF and Svg domains]
- selectivity for CRFR1 (rCRFR1 [1]; binding analysis): not

Compound: [h/rCRF^1-13]x[Svg^13-29]x[h/rCRF^31-41] (SEEPPISLDLTFHLLRKMIEIEKQEKEKQQAHSNRKLMEII; ends and bridges not checked) [compound 4, chimeric peptide of h/rCRF and Svg domains]
- affinity for CRFR2 (mCRFR2β): not
- selectivity for CRFR1 (rCRFR1 [1]; binding analysis): not

Compound: [h/rCRF^1-30]x[Svg^30-40] (SEEPPISLDLTFHLLREVLEMARAEQLAQQAANNRLLLDTI; ends and bridges not checked) [compound 5, chimeric peptide of h/rCRF and Svg domains]
- affinity for CRFR2 (mCRFR2β): low affinity
- selectivity for CRFR1 (rCRFR1 [1]; binding analysis): clear selectivity for CRFR1

Compound: anti-sauvagine-30 [aSvg-30]
- antagonism of anxiogenic effects of 100 ng oCRF (C57BL/6J mice): completely prevented; also recorded: fully antagonized
